Key:
primary human T cells = assay: EPO ELISA after EPO mRNA LNP treatment of primary human T cells; assay type: cell-based
Description: Reagents were acquired from Quantikine, Minneapolis, MN. The assay was performed as directed on the Quantikine® IVD® ELISA Human Erythropoietin Immunoassay protocol. REF DEP00 Package Insert. Briefly; primary human T cells were isolated from fresh whole blood using a negative selection protocol and activated using a triple activator. Seven days post-activation, T cells were dosed with mRNA LNPs encoding EPO at 2 pg mRNA per 500,000 cells and N/P 10. Quantikine® Human Serum Controls were used. After 48 hours of treatment with mRNA LNPs the T cells were harvested and lysed for cytosolic EPO and media supernatant was sampled for secreted EPO. Table 5 includes the data of FIG. 6 as well as the fold increase of EPO for PNI 76 and 121 versus MC3.

C57BL/6 mice = assay: OVA mRNA LNP intramuscular immunization, anti OVA-IgG ELISA; assay type: in vivo; conditions: i.m., days 1 and 10
From the text: LNP with the composition LM02b were used to encapsulate OVA antigen encoded CleanCap® OVA WT mRNA [TriLink L7610] or CleanCap® OVA 5-moU mRNA [TriLink L7210]. A lipid mixture of Ionizable lipid, DOPE, Cholesterol, and PEG-DMG2000, all in ethanol, was mixed with a low PH buffered solution of OVA mRNA at an N/P ratio of 8 using a NanoAssemblr® Ignite™ microfluidic mixer. The LNP were filtered using the Amicon™ ultra filtration technique and characterized for Size, PDI and Encapsulation Efficiency. Size and PDI were measured using dynamic light scattering techniques, and nucleic acid encapsulation efficiency was calculated from the Quant-iT RiboGreen RNA assay. […]
All animals were handled according to the Institutional Animal Care and Use Committee ethics protocols. […] Aliquots of serum samples were thawed and analyzed at appropriate dilutions for OVA expression and for IgG measurements using standard ELISA techniques.
Anti OVA-IgG ELISA of serum samples: Sera from the immunized mice were collected at 2 weeks post second immunization. OVA-specific production of IgG in response to OVA-encoded mRNA in various LNPs were measured by ELISA as described supra. […] After 30 minutes of incubation, a stop solution of 2 N sulphuric acid was added and a plate reader was used to determine absorbance at 450 nm. […]

| Structure (SMILES) | EPO expression compared with MC3 (primary human T cells; FIG. 6, N/P 10, 48 hours) | EPO Fold Change Relative to MC3 (primary human T cells; Table 5) | EPO concentration (mIU/mL) (primary human T cells; Table 5, EPO mRNA LNPs, 2 pg mRNA per 500,000 cells, N/P 10, 48 hours) | immune response to OVA antigen loaded LNPs (C57BL/6 mice) |
| --- | --- | --- | --- | --- |
| CCCCC/C=C\C/C=C\CCCCCCCC(=O)O[C@@H]1[C@@H](OC(=O)CCCCCCC/C=C\C/C=C\CCCCC)CO[C@@H]1COC(=O)CCCN(C)C (racemic) [PNI 121] | higher than those containing MC3 | 1.86 | 1009.0 mIU/mL | – |
| CCCCC/C=C\C/C=C\CCCCCCCC(=O)O[C@@H]1[C@@H](OC(=O)CCCCCCC/C=C\C/C=C\CCCCC)CO[C@@H]1COC(=O)CCCN1CCCC1 (racemic) [PNI 539] | – | – | – | effectively elicit an immune response similar to OVA antigen |

Source: US12636368B2, “Ionizable lipids for nucleic acid delivery” (Global Life Sciences Solutions Canada ULC, priority 2019, dated 2026)
